Test system: Sections of the hypothalamus containing the arcuate nucleus
Test: release of GHRH from hypothalamic explants in static culture
Format: cell-based, rats
Details: GR87 at 100 μm
Source text: The arcuate nucleus of the hypothalamus contains the majority of cells that synthesize GHRH and secrete the releasing factor into the anterior pituitary. Sections of the hypothalamus containing the arcuate nucleus were explanted from postnatal day 10-12 rats and maintained in static culture. Once established, these cultures were used to test the prediction that positive, allosteric modulators of AMPA type glutamate receptors will increase the release of GHRH from the hypothalamus into the culture medium. Explants were exposed to GR87 at 100 μm for four hours on some days and to vehicle for the same period on other days. Concentrates of the media were prepared following the exposure periods of GHRH assayed using a commercially available kit. Using a within culture design, i.e. drug vs. vehicle in the same tissue well, provided a control for differences in tissue thickness and the extent to which the arcuate was contained within the explants. As shown, the amount of GHRH in the media was about threefold greater after four hours of treatment with ampakine than it was after an equivalent period of vehicle application. This effect was in the predicted direction and was statistically significant (p=0.011).
A single experiment was conducted to test if prolonged administration of GR87 at 100 μm would affect GHRH secretion. […]

Question: How did the “media level of GHRH” value (24 hours, group of 12 explants (controls 18 ng/400 μl)) turn out when `O=C(c1ccc2c(c1)OCCO2)N1CCCCC1` [GR87] was run?
Answer: The value was 47 ng/400 μl.

Question: And the “amount of GHRH in the media relative to vehicle application” value (four hours, within-culture drug vs vehicle, p=0.011)?
Answer: Its value is “about threefold”.

Reference: US6620808B2, “Endocrine modulation with positive modulators of AMPA type glutamate receptors” (The Regents of the University of California, priority 1997, dated 2003)
